Details: 1 g added to 25 mL of water at room temperature (about 25° C., 1 atmosphere)

**Q.** Which Water solubility does the source give for [O]=[Zn] [zinc oxide] here?
**A.** almost insoluble
